Experimental data: publication PMC12040169 (PLOS Biology, 2025)

Experiment: in vitro
Conditions: human, hela cells, % viability

## COc1ccc(S(=O)(=O)N2CCC(C(=O)N3CCN(Cc4ccc5c(c4)OCO5)CC3)CC2)cc1Cl [CBK267614]
  viability at 28.5 h, 10 µM: 86%

## O=C(COc1ccc(S(=O)(=O)NC2CCCCC2)cc1Cl)Nc1ccc2c(c1)OCO2 [CBK267615]
  viability at 28.5 h, 10 µM: 90.5%

## Cc1ccc(NS(=O)(=O)c2ccc(CCC(=O)N3CCc4ccccc4C3)cc2)cc1 [CBK267616]
  viability at 28.5 h, 10 µM: 94.9%

## CCOc1ccc(CNc2ccc(CNc3ncn[nH]3)cc2)cc1 [CBK267617]
  viability at 28.5 h, 10 µM: 91.7%

## C=CCOc1cccc(CNc2nn[nH]n2)c1 [CBK267618]
  viability at 28.5 h, 10 µM: 109%

## Oc1cccc(C(O)CNCc2ccc(OCc3ccc(Cl)cc3Cl)cc2)c1 (stereo not drawn) [CBK267621C]
  viability at 28.5 h, 10 µM: 93%

## O=C(Nc1ccc(NC(=O)Nc2cccc(Cl)c2)cc1)Nc1cccc(Cl)c1 [CBK267623]
  viability at 28.5 h, 10 µM: 93.9%

## CC1CCc2c(sc(NC(=O)c3nc4ncccn4n3)c2C(N)=O)C1 (stereo not drawn) [CBK267631]
  viability at 28.5 h, 10 µM: 96.3%

## CC1CC(C(F)F)n2nc(C(=O)O)nc2N1 (stereo not drawn) [CBK267636]
  viability at 28.5 h, 10 µM: 99.7%

## COc1cc(NC(=O)Cn2c(-c3cncs3)nc3ccccc32)cc(OC)c1OC [CBK267640]
  viability at 28.5 h, 10 µM: 97.2%

## CC(NC(=O)c1cccc2ccccc12)c1ccc2ccccc2c1 (stereo not drawn) [CBK267646]
  viability at 28.5 h, 10 µM: 90.1%

## Nc1nonc1-c1nc2ccccc2n1Cc1ccc(-c2nn[nH]n2)cc1 [CBK267648]
  viability at 28.5 h, 10 µM: 91.3%

## Cc1ccccc1NS(=O)(=O)c1ccc(OCC(=O)N2CCN(c3cc(Cl)ccc3C)CC2)cc1 [CBK267649]
  viability at 28.5 h, 10 µM: 94.5%

## O=C(CSc1nnc(-c2ccc(Cl)cc2Cl)[nH]1)Nc1ccc(F)cc1 [CBK267651]
  viability at 28.5 h, 10 µM: 96.4%

## O=C(C1CCCN(S(=O)(=O)c2ccc(F)cc2)C1)N(Cc1ccccc1)Cc1ccccc1 (stereo not drawn) [CBK267652]
  viability at 28.5 h, 10 µM: 108%

## N#Cc1c(NC(=O)CSc2nnc(-c3ccc(Cl)cc3)o2)oc(-c2ccccc2)c1-c1ccccc1 [CBK267655]
  viability at 28.5 h, 10 µM: 93.9%

## CC(C)C(NS(=O)(=O)c1ccc([N+](=O)[O-])cc1)C(C)C [CBK267656]
  viability at 28.5 h, 10 µM: 94.8%

## CC(NS(=O)(=O)c1ccc(F)cc1)C(=O)Nc1ccc(C(N)=O)cc1 (stereo not drawn) [CBK267658]
  viability at 28.5 h, 10 µM: 104%

## CN(C)S(=O)(=O)N(CC(=O)O)c1ccccc1 [CBK267660]
  viability at 28.5 h, 10 µM: 105%

## Cc1ccc2c(C)c(C(=O)Nc3ccc(S(N)(=O)=O)cc3)oc2c1 [CBK267661]
  viability at 28.5 h, 10 µM: 110%

## Cc1ccc2c(C)c(C(=O)Nc3sc4c(c3C(=O)NCc3ccco3)CCC4)oc2c1 [CBK267662]
  viability at 28.5 h, 10 µM: 99.2%

## Cc1c(C(=O)Nc2ccc(S(=O)(=O)N3CCCCCC3)cc2)oc2ccc(Cl)cc12 [CBK267664]
  viability at 28.5 h, 10 µM: 89.2%

## NC(=O)Cn1c(=O)n(CCc2ccccc2)c(=O)c2c3c(sc21)CCCC3 [CBK267665]
  viability at 28.5 h, 10 µM: 103%

## COC(=O)Cn1c(=O)n(CCc2ccccc2)c(=O)c2c3c(sc21)CCCC3 [CBK267666]
  viability at 28.5 h, 10 µM: 98.6%

## COc1ccc(CNc2oc(-c3ccccc3)nc2S(=O)(=O)c2ccccc2)cc1 [CBK267669]
  viability at 28.5 h, 10 µM: 105%

## CC(Nc1oc(-c2ccco2)nc1S(=O)(=O)c1ccc(F)cc1)c1ccccc1 (stereo not drawn) [CBK267671]
  viability at 28.5 h, 10 µM: 73.2%

## O=C(O)CCC(=O)Nc1ccccc1C(=O)NC1CCCCC1 [CBK267674]
  viability at 28.5 h, 10 µM: 105%

## O=C(NC1CCCCC1)c1ccccc1NC(=O)C1CCCCC1C(=O)O (stereo not drawn) [CBK267675]
  viability at 28.5 h, 10 µM: 97%

## Cc1ccccc1C(=O)NCCNC(=O)c1nonc1N [CBK267677]
  viability at 28.5 h, 10 µM: 103%

## Cc1ccc(SCC(=O)NCCCN2CCOCC2)cc1 [CBK267678]
  viability at 28.5 h, 10 µM: 99.3%

## NC(=O)c1ccccc1NC(=O)CCCN1C(=O)CCC1=O [CBK267680]
  viability at 28.5 h, 10 µM: 94.1%

## O=C(CCCCCN1C(=O)CCC1=O)Nc1nc[nH]n1 [CBK267682]
  viability at 28.5 h, 10 µM: 103%

## COc1ccc(/C(N)=N/OC(=O)CN(C)S(=O)(=O)c2ccccc2)cc1 [CBK267683]
  viability at 28.5 h, 10 µM: 93%

## O=C(CCn1cnc2ccccc2c1=O)Nc1cccc(C(F)(F)F)c1 [CBK267687]
  viability at 28.5 h, 10 µM: 91.5%

## CCOC(=O)c1ccc(Cn2c(-c3ccccc3)nnc2-c2ccccc2)o1 [CBK267691]
  viability at 28.5 h, 10 µM: 87.8%

## Cn1c(=O)c2c(nc(SCC(=O)CSc3nc4c(c(=O)n(C)c(=O)n4C)n3C)n2C)n(C)c1=O [CBK267692]
  viability at 28.5 h, 10 µM: 86.9%

## NS(=O)(=O)c1ccc(NC(=O)CCC2COc3ccccc3O2)cc1 (stereo not drawn) [CBK267696]
  viability at 28.5 h, 10 µM: 87.9%

## COc1ccc(C(=O)NNS(=O)(=O)N(C)C)cc1OC [CBK267697]
  viability at 28.5 h, 10 µM: 99.1%

## CCOC(=O)c1c(-c2ccc(C)o2)csc1NC(=O)CN1C(=O)c2ccccc2C1=O [CBK267699]
  viability at 28.5 h, 10 µM: 85.1%

## CC(C)(O)C#Cc1ccc(C(=O)NC(CSCc2ccccc2)C(=O)O)s1 (stereo not drawn) [CBK267705]
  viability at 28.5 h, 10 µM: 98.4%

## N=C(N)NC(=N)NCCc1c[nH]c2ccccc12 [CBK267706G]
  viability at 28.5 h, 10 µM: 89.3%

## Cn1c(=O)c2c(nc(N3CCOCC3)n2CC/N=C2/CCCN2)n(C)c1=O [CBK267709C]
  viability at 28.5 h, 10 µM: 85.9%

## CN(C)CCn1c2c(c3ccccc31)CCCn1nnnc1-2 [CBK267713C]
  viability at 28.5 h, 10 µM: 94.8%

## Cc1ccc(-n2c(SCC(=O)NC(C)Cc3ccccc3)nc3sc4c(c3c2=O)CC(C)(C)OC4)cc1 (stereo not drawn) [CBK267714]
  viability at 28.5 h, 10 µM: 94.7%

## CSc1nc(SCC(=O)N(c2ccccc2)c2ccccc2)c2c3c(sc2n1)CCC3 [CBK267715]
  viability at 28.5 h, 10 µM: 90.6%

## CC(NS(=O)(=O)c1cccc2c(S(=O)(=O)NC(C)c3ccccc3)cccc12)c1ccccc1 (stereo not drawn) [CBK267717]
  viability at 28.5 h, 10 µM: 83.6%

## O=C(Nc1cccc(S(=O)(=O)N2CCOCC2)c1)c1cc(-c2cccnc2)nc2ccc(Cl)cc12 [CBK267720]
  viability at 28.5 h, 10 µM: 98%

## COc1cc2c(cc1NC(=O)c1cc(-c3cccnc3)nc3ccc(C)cc13)oc1ccccc12 [CBK267722]
  viability at 28.5 h, 10 µM: 92.1%

## O=C(Nc1ccc(N2CCOCC2)c2nonc12)c1cc(-c2cccnc2)nc2ccc(Cl)cc12 [CBK267724]
  viability at 28.5 h, 10 µM: 89.8%

## O=C(Nc1ccc(C(=O)N2CCOCC2)cc1)c1cc(-c2cccnc2)nc2ccc(Cl)cc12 [CBK267725]
  viability at 28.5 h, 10 µM: 93%

## NS(=O)(=O)c1ccc(CNC(=O)c2cc(-c3cccnc3)nc3ccc(Cl)cc23)cc1 [CBK267727]
  viability at 28.5 h, 10 µM: 83.8%

## CN(C)CCNC(=O)c1cc(-c2ccncc2)nc2ccc(Br)cc12 [CBK267728]
  viability at 28.5 h, 10 µM: 103%

## CN1CCN(NC(=O)c2cc(-c3cccnc3)nc3ccc(Cl)cc23)CC1 [CBK267729]
  viability at 28.5 h, 10 µM: 110%

## CN1CCN(S(=O)(=O)c2ccc(NC(=O)c3cc(-c4ccncc4)nc4ccc(Cl)cc34)cc2)CC1 [CBK267730]
  viability at 28.5 h, 10 µM: 98.6%

## Cc1c(Cl)ccc2c(C(=O)NCCCn3cc(Br)cn3)cc(-c3ccncc3)nc12 [CBK267731]
  viability at 28.5 h, 10 µM: 95.1%

## Cc1ccc2nc(-c3ccncc3)cc(C(=O)Nc3ccc(C(F)(F)F)cc3)c2c1 [CBK267732]
  viability at 28.5 h, 10 µM: 91.6%

## CN1CCN(S(=O)(=O)c2ccc(NC(=O)c3cc(-c4cccnc4)nc4ccc(Cl)cc34)cc2)CC1 [CBK267734]
  viability at 28.5 h, 10 µM: 94.2%

## CNS(=O)(=O)c1ccc(NC(=O)c2cc(-c3ccc4c(c3)OCO4)nc3ccccc23)cc1 [CBK267735]
  viability at 28.5 h, 10 µM: 99%

## Cc1ccc2nc(-c3ccncc3)cc(C(=O)N3CCN(C4CCCCC4)CC3)c2c1 [CBK267736]
  viability at 28.5 h, 10 µM: 96.4%

## Cc1cc(-c2cc(C(=O)NN3CCN(C)CC3)c3cc(Cl)ccc3n2)c(C)s1 [CBK267738]
  viability at 28.5 h, 10 µM: 102%

## NS(=O)(=O)c1ccc(CNC(=O)c2cc(-c3cccnc3)nc3ccc(Br)cc23)cc1 [CBK267740]
  viability at 28.5 h, 10 µM: 96.9%

## Cc1ccccc1-c1cc(C(=O)Nc2ccc(S(N)(=O)=O)cc2)c2cc(Cl)ccc2n1 [CBK267741]
  viability at 28.5 h, 10 µM: 90%

## Cc1cccc2c(C(=O)NCc3ccc(S(N)(=O)=O)cc3)cc(-c3ccccc3Cl)nc12 [CBK267743]
  viability at 28.5 h, 10 µM: 93%

## CC1CCc2c(sc(NC(=O)c3cc(-c4ccccn4)nc4c(Cl)cccc34)c2C(N)=O)C1 (stereo not drawn) [CBK267744]
  viability at 28.5 h, 10 µM: 94.1%

## CC(=O)Nc1cccc(NC(=O)c2cc(-c3ccccn3)nc3ccc(Cl)cc23)c1 [CBK267747]
  viability at 28.5 h, 10 µM: 95.1%

## O=C(c1cc(-c2ccncc2)nc2ccc(Cl)cc12)N1CCN(c2ccc([N+](=O)[O-])cc2)CC1 [CBK267748]
  viability at 28.5 h, 10 µM: 83.8%

## COc1ccc(S(=O)(=O)N2CCN(C(=O)c3cc(-c4ccncc4)nc4ccc(Br)cc34)CC2)cc1 [CBK267750]
  viability at 28.5 h, 10 µM: 101%

## Cc1ccc2nc(-c3ccncc3)cc(C(=O)N3CCN(c4ncccn4)CC3)c2c1 [CBK267751]
  viability at 28.5 h, 10 µM: 93%

## O=C(c1cc(-c2ccncc2)nc2ccc(Cl)cc12)N1CCN(C/C=C/c2ccccc2)CC1 [CBK267754]
  viability at 28.5 h, 10 µM: 106%

## CC(CN1CCCCC1)NC(=O)c1cc(-c2ccncc2)nc2ccc(Br)cc12 (stereo not drawn) [CBK267756]
  viability at 28.5 h, 10 µM: 90.6%

## Cc1ccccc1-c1cc(C(=O)NCCCn2cc(Br)cn2)c2ccccc2n1 [CBK267758]
  viability at 28.5 h, 10 µM: 97.8%

## CN(C)CCNC(=O)c1cc(-c2cccnc2)nc2c(Cl)cccc12 [CBK267761]
  viability at 28.5 h, 10 µM: 112%

## O=C(c1cc(-c2ccncc2)nc2ccc(Cl)cc12)N1CCN(Cc2ccc3c(c2)OCO3)CC1 [CBK267765]
  viability at 28.5 h, 10 µM: 85.4%

## COc1ccc(S(=O)(=O)N2CCN(C(=O)c3cc(-c4cccnc4)nc4c(C)cc(C)cc34)CC2)cc1OC [CBK267767]
  viability at 28.5 h, 10 µM: 99.4%

## Cc1cc(C)c2nc(-c3ccccn3)cc(C(=O)NCc3cccs3)c2c1 [CBK267772]
  viability at 28.5 h, 10 µM: 86.1%

## CC(=O)Nc1cccc(NC(=O)c2cc(-c3ccncc3)nc3ccc(Cl)cc23)c1 [CBK267773]
  viability at 28.5 h, 10 µM: 92.6%

## NS(=O)(=O)c1ccc(CNC(=O)c2cc(-c3cccc(Cl)c3)nc3ccccc23)cc1 [CBK267774]
  viability at 28.5 h, 10 µM: 88.7%

## CNS(=O)(=O)c1ccc(NC(=O)c2cc(-c3cccnc3)nc3ccc(Br)cc23)cc1 [CBK267776]
  viability at 28.5 h, 10 µM: 95.5%

## COc1ccc(NC(=O)c2cc(-c3cccc(Cl)c3)nc3ccccc23)c([N+](=O)[O-])c1 [CBK267777]
  viability at 28.5 h, 10 µM: 86.7%

## Cc1cc(C)c2nc(-c3ccccn3)cc(C(=O)Nc3ccc(S(=O)(=O)Nc4cc(C)on4)cc3)c2c1 [CBK267779]
  viability at 28.5 h, 10 µM: 105%

## Cc1c(-c2cccc(Cl)c2)nc2ccccc2c1C(=O)NCCc1ccc(S(N)(=O)=O)cc1 [CBK267784]
  viability at 28.5 h, 10 µM: 96%
